Source: patent US20260042754A1, “Substituted Bicyclic Heteroaryl Sulfonamide Derivatives for the Treatment of Cancer” (NODUS ONCOLOGY LIMITED, priority 2022, published 2026)
Like-named read-outs stand apart in the source and are kept apart here.

What was measured:
NCI-H1650 = test: Modified cell proliferation assay (CellTiter-Glo), NCI-H1650; assay type: cell-based; conditions: modified protocol, 384-well, 300 cells per well, 120 h, highest concentration tested 30000 nM, read-out: NCI-H1650 GI50 (high PARG dependency)
Description: The cell proliferation assay protocol was modified and used for RMUG-S for Examples 12-44, and subsequently used to test Examples 1-44 in the NCI-H1650 cell line.
NCI-H1650 (ATCC, #CRL-5883) or RMUG-S were seeded on day 1 at 300 cells per well in a 384-well plate (Greiner, #781080) that assure assay linearity and optimal signal intensity in 25 μL of RPMI1640 media (Pan Biotech, #P04-22100) containing 10% FCS (Capricorn, #FBS-11A; Lot. CP22-5141) and 1% Glutamine (Pan Biotech, #P04-80100). After incubation for 24 h in humidified chambers at 37° C./5% CO2, compounds/DMSO were dispensed at different concentrations using an Echo 520 (Beckman Coulter). Cells were further incubated for 120 h at 37° C. and 5% CO2. Cells treated with the compound vehicle DMSO were used as negative controls and cells treated with 10 μM Staurosporine (LC Laboratories, #S-9300) served as positive controls.
At day 6 the CellTiter Glo Reagent was prepared according to the instructions of the kit (Promega Inc.): Reagent was mixed 1:1 with cell culture medium. Thereon, mixture and assay plates were equilibrated at room temperature for 20 min. Equal volumes of the reagent-medium-mixture were added to the volume of culture medium present in each well. The plates were mixed at […] for 2 minutes on an orbital shaker (Timix5, Edmund Buehler GmbH). The microplates were then incubated at room temperature for 10 minutes for stabilization of the luminescent signal. Following incubation, the luminescence was recorded on a Victor X5 microplate reader (Perkin Elmer) using a 200 ms integration time. The data was then analyzed with Excel using the XLFIT Plugin (dose response Fit 205) for determination of the concentration necessary for half-maximal inhibition (i.e. the inflection point of the fitted curve).
As quality control the Z′-factor was calculated from 16 positive and negative control values. Only assay results showing a Z′-factor≥0.5 were used for further analysis.

[1] = target: human PARG (PARG-NanoLuc fusion in HEK293T cells) (Homo sapiens (Human), UniProt Q86W56); test: PARG NanoBRET-based cellular target engagement assay; assay type: cell-based; conditions: HEK293T cells transfected with PARG-NanoLuc, NanoBRET probe 0.89 μM, 2 hours; read-out: PARG TE IC50
Description: PARG Nano-luciferase construct: The PARG-NanoLuc® fusion vector was generated by Promega, by inserting the full length human PARG cDNA sequence encoding the 976 amino acid protein (Gene ID: 8505, UniProt: Q86W56) into the pNLF1-C [CMV/Hygro] vector (C-terminal fusions with NanoLuc® enzyme).
PARG target engagement tracer synthesis: The NanoBRET tracer for PARG was prepared following a previously reported general tracer synthesis procedure.
PARG Probe Displacement Assay Using NanoBRET: HEK293T (DSMZ #ACC 635) cells transiently transfected with the PARG-NanoLuc fusion construct were resuspended in phenol red-free OptiMEM (Gibco #11058-021) to a concentration of 2.4×10^5 cells/mL. 9 μL per well were then added to a white 384-well low volume microplate (Greiner #784080) and incubated for 24 hours under standard growth conditions.
Then compound was dispensed into each well using an Echo dispenser (BeckmanCoulter) to yield the pre-specified final concentration of the range of concentrations to be tested (typically 8-point serial concentrations ranging from either from 0.01 to 10 μM, or from 0.001 to 1 μM, or from 0.0001 to 0.1 μM), and being volume-corrected with 100% DMSO (0.5% final DMSO concentration in reaction mixtures).
After mixing and an incubation at room temperature for 15 min 1 μl of the NanoBRET probe (at 0.89 μM final concentration) was added to the microplate using a multichannel pipette. The plate was mixed and incubated in a 5% CO2 environment at 37° C. for 2 hours, and then 5 μL per well of a solution consisting of a 1:31.25 dilution of Nano-Glo substrate (Promega) and a 1:500 dilution of NanoLuc extracellular inhibitor (Promega) in phenol red-free OptiMEM was added to each well followed by another mixing step. Filtered luminescence was measured on an EnVision plate reader (PerkinElmer) equipped with a 460 nm filter (donor) and a 645 nm filter (acceptor). BRET ratios were plotted as concentration-response curves fitted to a sigmoidal 4-parameter logistic model to calculate IC50 values (Scigilian Analyze).

[2] = target: Recombinant His-tagged human PARG protein (Homo sapiens (Human), UniProt Q86W56); test: PARG enzymatic assay (TFMU-ADPr fluorescence); assay type: biochemical; conditions: 1 nM enzyme, 200 μM TFMU-ADPr, read after 30 minutes
Description: Inhibition of PARG enzymatic activity by compounds was determined as follows: Recombinant His-tagged human PARG protein expressed in Sf21 insect cells (Adipogen AG, #40T-0022) was aliquoted and stored at −80° C. until use. The artificial enzyme substrate 4-(trifluoromethyl)umbelliferone (TFMU)-ADPr was prepared essentially as described (Drown B S et al, Cell Chemical Biology 2018) and stored at −20° C. as 10 mM stock solutions in DMSO (dimethyl sulfoxide) until use. For reactions, typical final concentration of the enzyme was 1 nM and of the TFMU-ADPr 200 μM. Reactions were carried out in black 384-well low volume round bottom assay plates (Corning, #4514) in a final volume of 10 μL. To this end, PARG was diluted to 1.67 nM in reaction buffer (50 mM K2HPO4, 50 mM KCl, 10 mM β-mercaptoethanol, pH 7.4) and 6 μL were dispensed per assay well using a multichannel pipette. Then compound was dispensed into each well using an Echo dispenser (BeckmanCoulter) to yield the pre-specified final concentration of the range of concentrations to be tested (typically 8-point serial concentrations ranging from either from 0.01 to 10 μM, or from 0.001 to 1 μM, or from 0.0001 to 0.1 μM), and being volume-corrected with 100% DMSO (0.5% final DMSO concentration in reaction mixtures). Plates were mixed, and after 15 minutes 4 μL TFMU-ADPr was added into each well using a multichannel pipette followed by brief mixing. Fluorescence intensity signals were then measured after 30 minutes on an EnVision microplate reader (PerkinElmer) using 380/10 nm and 535/25 nm filters for the excitation and emission, respectively (gain: 150). The assay window was set using DMSO control (top) and a control containing no PARG enzyme (bottom). Delta values were plotted as concentration-response curves fitted to a sigmoidal 4-parameter logistic model to calculate IC50 values (Scigilian Analyze).

Chain of Recombinant His-tagged human PARG protein (Q86W56 whole entry): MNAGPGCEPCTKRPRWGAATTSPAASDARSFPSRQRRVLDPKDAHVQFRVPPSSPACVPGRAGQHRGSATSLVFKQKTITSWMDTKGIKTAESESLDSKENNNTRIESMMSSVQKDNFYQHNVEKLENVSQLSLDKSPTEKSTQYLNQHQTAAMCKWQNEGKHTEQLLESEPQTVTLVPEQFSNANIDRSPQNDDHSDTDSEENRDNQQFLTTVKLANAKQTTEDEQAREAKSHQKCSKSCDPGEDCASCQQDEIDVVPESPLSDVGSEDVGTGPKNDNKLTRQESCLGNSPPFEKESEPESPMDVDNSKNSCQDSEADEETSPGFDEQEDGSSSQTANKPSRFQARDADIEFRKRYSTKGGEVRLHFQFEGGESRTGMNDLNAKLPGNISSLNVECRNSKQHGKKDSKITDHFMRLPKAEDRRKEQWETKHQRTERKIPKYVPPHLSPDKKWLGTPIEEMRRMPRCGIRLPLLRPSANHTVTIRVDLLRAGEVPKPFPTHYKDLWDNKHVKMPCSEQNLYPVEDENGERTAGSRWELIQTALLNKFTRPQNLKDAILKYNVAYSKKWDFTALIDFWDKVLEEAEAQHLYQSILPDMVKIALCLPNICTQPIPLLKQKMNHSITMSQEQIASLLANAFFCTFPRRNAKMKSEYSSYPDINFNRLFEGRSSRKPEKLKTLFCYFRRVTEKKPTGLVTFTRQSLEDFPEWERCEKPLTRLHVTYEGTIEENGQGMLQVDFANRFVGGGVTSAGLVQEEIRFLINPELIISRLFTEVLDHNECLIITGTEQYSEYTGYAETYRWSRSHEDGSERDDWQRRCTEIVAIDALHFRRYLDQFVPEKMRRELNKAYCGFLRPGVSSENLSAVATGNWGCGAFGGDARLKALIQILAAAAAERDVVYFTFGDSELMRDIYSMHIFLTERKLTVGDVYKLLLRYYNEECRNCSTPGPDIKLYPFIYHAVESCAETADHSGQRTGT
Chain of human PARG (PARG-NanoLuc fusion in HEK293T cells) (Q86W56 whole entry, the tested form may be a part): as the sequence (Q86W56 whole entry) above

SMILES | GI50 (NCI-H1650; Homo sapiens, NCI-H1650) | IC50 [1] | IC50 [2] | GI50 (NCI-H1650)
CO/N=c1\[nH]c2c(N3CCN(C(=O)C4(C)CCC4)[C@H](C)C3)cc(S(=O)(=O)NC3(C)CC3)cc2c(=O)n1Cc1cnn(C)c1 [Example 38, (R,E)-2-(methoxyimino)-3-((1-methyl-1H-pyrazol-4-yl)methyl)-8-(3-methyl-4-(1-methylcyclobutane-1-carbonyl)piperazin-1-yl)-N-(1-methylcyclopropyl)-4-oxo-1,2,3,4-tetrahydroquinazoline-6-sulfonamide] | < 0.5 µM | < 0.03 µM | < 0.03 µM | –
CO/N=c1\[nH]c2c(-c3ccc(CN)cc3)cc(S(=O)(=O)NC3(C)CC3)cc2c(=O)n1Cc1cnn(C)c1 [Example 17, (E)-8-(4-(aminomethyl)phenyl)-2-(methoxyimino)-3-((1-methyl-1H-pyrazol-4-yl)methyl)-N-(1-methylcyclopropyl)-4-oxo-1,2,3,4-tetrahydroquinazoline-6-sulfonamide] | > 2 µM | 0.1 to 1 µM | 0.03 to 0.099 µM | –
CO/N=c1\[nH]c2c(-c3ccc(C(C)=O)cc3)cc(S(=O)(=O)NC3(C)CC3)cc2c(=O)n1Cc1cnn(C)c1 [Example 16, (E)-8-(4-acetylphenyl)-2-(methoxyimino)-3-((1-methyl-1H-pyrazol-4-yl)methyl)-N-(1-methylcyclopropyl)-4-oxo-1,2,3,4-tetrahydroquinazoline-6-sulfonamide] | > 2 µM | < 0.03 µM | < 0.03 µM | –
CO/N=c1\[nH]c2c(Cl)cc(S(=O)(=O)NC3(C)CC3)cc2c(=O)n1Cc1cnn(C)c1 [Example 4, 8-chloro-2-methoxyimino-N-(1-methylcyclopropyl)-3-[(1-methylpyrazol-4-yl)methyl]-4-oxo-1H-quinazoline-6-sulfonamide] | > 2 µM | 0.03 to 0.099 µM | < 0.03 µM | –
CO/N=c1\[nH]c2c(-c3ccc(C(=O)C4(C)CC4)cc3)cc(S(=O)(=O)NC3(C)CC3)cc2c(=O)n1Cc1cnn(C)c1 [Example 18, (E)-2-(methoxyimino)-3-((1-methyl-1H-pyrazol-4-yl)methyl)-8-(4-(1-methylcyclopropane-1-carbonyl)phenyl)-N-(1-methylcyclopropyl)-4-oxo-1,2,3,4-tetrahydroquinazoline-6-sulfonamide] | 0.5 to 2 µM | < 0.03 µM | < 0.03 µM | –
CO/N=c1\[nH]c2c(N3CCN(C(=O)C(C)C)[C@H](C)C3)cc(S(=O)(=O)NC3(C)CC3)cc2c(=O)n1Cc1cnn(C)c1 [Example 35, (R,E)-8-(4-isobutyryl-3-methylpiperazin-1-yl)-2-(methoxyimino)-3-((1-methyl-1H-pyrazol-4-yl)methyl)-N-(1-methylcyclopropyl)-4-oxo-1,2,3,4-tetrahydroquinazoline-6-sulfonamide] | < 0.5 µM | < 0.03 µM | < 0.03 µM | –
CO/N=c1\[nH]c2c(N3CCN(C(C)=O)[C@H](C)C3)cc(S(=O)(=O)NC3(C)CC3)cc2c(=O)n1Cc1cnn(C)c1 [Example 12, (2E)-2-methoxyimino-N-(1-methylcyclopropyl)-3-[(1-methylpyrazol-4-yl)methyl]-4-oxo-8-[(3R)-4-acetyl-3-methyl-piperazin-1-yl]-1H-quinazoline-6-sulfonamide] | < 0.5 µM | < 0.03 µM | < 0.03 µM | –
CO/N=c1\[nH]c2c(C3=C[C@@H](C)NCC3)cc(S(=O)(=O)NC3(C)CC3)cc2c(=O)n1Cc1cnn(C)c1 [Example 13, (R,E)-2-(methoxyimino)-8-(6-methyl-1,2,3,6-tetrahydropyridin-4-yl)-3-((1-methyl-1H-pyrazol-4-yl)methyl)-N-(1-methylcyclopropyl)-4-oxo-1,2,3,4-tetrahydroquinazoline-6-sulfonamide/(R,E)-2-(methoxyimino)-8-(2-methyl-1,2,3,6-tetrahydropyridin-4-yl)-3-((1-methyl-1H-pyrazol-4-yl)methyl)-N-(1-methylcyclopropyl)-4-oxo-1,2,3,4-tetrahydroquinazoline-6-sulfonamide] | – | 0.03 to 0.099 µM | < 0.03 µM | 0.5 to 2 µM
CO/N=c1\[nH]c2c(N3CCN(C(=O)N4CCCC4)[C@H](C)C3)cc(S(=O)(=O)NC3(C)CC3)cc2c(=O)n1Cc1cnn(C)c1 [Example 40, (R,E)-2-(methoxyimino)-3-((1-methyl-1H-pyrazol-4-yl)methyl)-8-(3-methyl-4-(pyrrolidine-1-carbonyl)piperazin-1-yl)-N-(1-methylcyclopropyl)-4-oxo-1,2,3,4-tetrahydroquinazoline-6-sulfonamide] | < 0.5 µM | < 0.03 µM | < 0.03 µM | –
CO/N=c1\[nH]c2c(N3CCN(C(=O)C4CCCC4)[C@H](C)C3)cc(S(=O)(=O)NC3(C)CC3)cc2c(=O)n1Cc1cnn(C)c1 [Example 39, (R,E)-8-(4-(cyclopentanecarbonyl)-3-methylpiperazin-1-yl)-2-(methoxyimino)-3-((1-methyl-1H-pyrazol-4-yl)methyl)-N-(1-methylcyclopropyl)-4-oxo-1,2,3,4-tetrahydroquinazoline-6-sulfonamide] | < 0.5 µM | < 0.03 µM | < 0.03 µM | –
CO/N=c1\[nH]c2c(-c3cnc(C(=O)N(C)C)[nH]3)cc(S(=O)(=O)NC3(C)CC3)cc2c(=O)n1Cc1cnn(C)c1 [Example 23, (E)-5-(2-(methoxyimino)-3-((1-methyl-1H-pyrazol-4-yl)methyl)-6-(N-(1-methylcyclopropyl)sulfamoyl)-4-oxo-1,2,3,4-tetrahydroquinazolin-8-yl)-N,N-dimethyl-1H-imidazole-2-carboxamide] | 0.5 to 2 µM | < 0.03 µM | < 0.03 µM | –
